The test system of assay [1] is 5HT. The conditions noted are these: mice; cited from earlier work.
The test system of a further assay is cholangiocarcinoma. Particulars: xenograft model of cholangiocarcinoma; cited from earlier work.
Assay [2] relates to 5HT. Particulars: 200 mg/kg i.p. qid for 3 days; cited from earlier work.
Assay [3] relates to 5HT. The conditions noted are these: in vivo; cited from earlier work.
The next assay concerns 5HT / 5HIAA. Particulars: phase IIA study, qid; cited from earlier work.
A further assay addresses human TPH1 (Homo sapiens (Human), UniProt P17752). As to the kind of experiment: Biochemical in vitro assay using fluorescence readout (TPH1 inhibition).
[4] abbreviates: human TPH1, fluorescence readout.

The values that follow come from US9765092B2, “Tricyclic piperidine compounds” (ACTELION PHARMACEUTICALS LTD, priority 2013, dated 2017).

Usually IC50 stands for the concentration that gives 50% inhibition. Higher therefore signals lower potency.

Chain of human TPH1 (P17752 whole entry): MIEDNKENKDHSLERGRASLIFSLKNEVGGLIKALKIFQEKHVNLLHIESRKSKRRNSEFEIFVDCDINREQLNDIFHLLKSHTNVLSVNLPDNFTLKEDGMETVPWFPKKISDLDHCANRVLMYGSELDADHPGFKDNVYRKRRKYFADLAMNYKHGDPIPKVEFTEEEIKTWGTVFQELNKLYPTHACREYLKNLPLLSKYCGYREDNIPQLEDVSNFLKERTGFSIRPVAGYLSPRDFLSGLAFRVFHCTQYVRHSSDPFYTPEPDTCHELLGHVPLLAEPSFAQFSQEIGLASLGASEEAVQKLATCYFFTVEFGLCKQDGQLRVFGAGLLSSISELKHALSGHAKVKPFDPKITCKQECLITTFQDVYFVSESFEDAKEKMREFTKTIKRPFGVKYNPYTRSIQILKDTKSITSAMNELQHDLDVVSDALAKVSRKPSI

`Nc1nc(OC(c2ccc(-c3cccc(F)c3)cc2)C(F)(F)F)cc(-c2ccc(C[C@H](N)C(=O)O)cc2)n1` (stereo partly shown) [LP533401]: in the assay with 5HT [1], the “brain 5HT concentrations” value was “without effecting brain concentrations” and the “gut 5HT” value is listed as “lower gut 5HT”.
In the case of `N[C@@H](Cc1ccc(Cl)cc1)C(=O)O` (racemic) [PCA, p-chlorophenylalanine], the tumor volume result in the assay with cholangiocarcinoma is recorded as “dramatic reduction in tumor volume”. Besides, in the assay with 5HT [2], the “5HT in the brain” value is around 20 % original and the “5HT in the gut” value is listed as around 50 % original.
Take `COc1cccc(-c2ccc([C@@H](Oc3cc(-c4ccc(C[C@H](N)C(=O)O)cc4)nc(N)n3)C(F)(F)F)cc2)c1` [LX1031, (S)-2-Amino-3-(4-{2-amino-6-[(R)-2,2,2-trifluoro-1-(3′-methoxy-biphenyl-4-yl)-ethoxy]-pyrimidin-4-yl}-phenyl)-propionic acid]: in the assay on 5HT [3], the “5HT in the colon” value is reported as “only a minor reduction”, the “5HT in the jejunum” value was “lowers 5HT in the jejunum” and the “brain 5HT” value is listed as “no effect on brain 5HT”. Besides, in the assay with 5HT / 5HIAA, the “blood 5HT” value is listed as “did not affect blood 5HT” and the “urinary 5HIAA reduction” value was “up to 30%”.
The compound “5-(2-(5-(4-(aminomethyl)-2-fluorophenyl)-2-methyl-7,8-dihydro-[1,3,4]thiadiazolo[2′,3′:2,3]imidazo[4,5-c]pyridin-6(5H)-yl)-2-oxoethoxy)-6-chloro-N-cyclopropylpicolinamide [Example 1.78.2]” yielded an IC50 against human TPH1 (setting [4]) of 18 nM.
The compound `Cc1nn2c3c(nc2s1)CCN(C(=O)COc1ccc(S(N)(=O)=O)nc1Cl)C3c1ccc(Cl)cc1F` (stereo not shown) [Example 1.4.12, 6-Chloro-5-(2-(5-(4-chloro-2-fluorophenyl)-2-methyl-7,8-dihydro-[1,3,4]thiadiazolo[2′,3′:2,3]imidazo[4,5-c]pyridin-6(5H)-yl)-2-oxoethoxy)pyridine-2-sulfonamide] returned an IC50 on human TPH1 (full length human TPH1, 40 μM L-tryptophan, 15° C., 60 minutes, fluorescence at 540 nm, mean if determined several times) of 57 nM.
`COc1ccc(C2c3c(nc4sccn34)CCN2C(=O)COc2ccc3ccccc3c2)cc1OC` (stereo not shown) [Example 6.1.1, 1-(5-(3,4-dimethoxyphenyl)-7,8-dihydrothiazolo-[2′,3′:2,3]imidazo[4,5-c]pyridin-6(5H)-yl)-2-(naphthalen-2-yloxy)ethanone] registered an IC50 against human TPH1 (setting [4]) of 4 nM.
